The results in this text go back to patent US20230077362A1 (CORTEVA AGRISCIENCE LLC, priority 2019, published 2023).

Data set [1] deals with Beet Armyworm (Spodoptera exigua) ("BAW"), second instar larvae. The data set is described as follows: Bioassay on beet armyworm (BAW), 128-well diet tray assay. In kind it is in vivo. Conditions: for pest or weed control at 50 µg/cm2: Spodoptera exigua. In short, it runs like this: (§1)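 Each value represents average percent mortality from eight wells. Larvae were kept in clear-covered trays at 25° C. for five to seven days on a 14-hour light, 10-hour dark schedule before scoring.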

Data set [2] deals with Cabbage Looper (Trichoplusia ni) ("CL"), second instar larvae. Kind of data set: Bioassay on cabbage looper (CL), 128-well diet tray assay. In kind it is in vivo. In short, it runs like this: as §1
Setting [3] is: read-out: BAW (Biological Results, rating).
[4] abbreviates: Trichoplusia ni, read-out: CL (Biological Results, rating).
Setting [5] is: Trichoplusia ni, read-out: CL rating.

Read-outs that look alike come from different tables or passages of the source.

As for `Cc1ccc(OCCC(F)(F)F)c(N2C(=O)CS/C2=N\C(=O)Nc2ccc(-c3ncn(-c4ccc(C(F)(F)F)cc4)n3)cc2F)c1` [Compound J64, (Z)-1-(2-Fluoro-4-(1-(4-(trifluoromethyl)phenyl)-1H-1,2,4-triazol-3-yl)phenyl)-3-(3-(5-methyl-2-(3,3,3-trifluoropropoxy)phenyl)-4-oxothiazolidin-2-ylidene)urea], the pest or weed control at 50 µg/cm2 in data set [1] (setting [3]) and in data set [2] (setting [4]) was 50 to 100% in each case.
Take `CC(C)c1cc(F)c(N(C)C)cc1N1C(=O)CS/C1=N\C(=O)Nc1ccc(-c2ncn(-c3ccc(C(F)(F)F)cn3)n2)cc1F` [Compound J352]: the “BAW (Biological Results, rating)” value in data set [1] (Beet Armyworm (Spodoptera exigua), C = Not Tested) is “A (50-100)”. In addition, in data set [2] (Cabbage Looper (Trichoplusia ni), C = Not Tested), the “CL (Biological Results, rating)” value is reported as “A (50-100)”.
With `Cc1ccc(COCCC(F)(F)F)c(N2C(=O)CS/C2=N\C(=O)Nc2ccc(-c3ncn(-c4ccccc4)n3)cc2F)c1` [Compound J779, (Z)-1-(2-Fluoro-4-(1-phenyl-1H-1,2,4-triazol-3-yl)phenyl)-3-(3-(5-methyl-2-((3,3,3-trifluoropropoxy)methyl)phenyl)-4-oxothiazolidin-2-ylidene)urea], the pest or weed control at 50 µg/cm2 in data set [1] (read-out: BAW rating) and in data set [2] (setting [5]) was 50 to 100% in each case.
As for `COC(C)c1ccc(C)cc1N1C(=O)CS/C1=N\C(=O)Nc1ccc(-c2nnc(-c3ccc(OC(F)(F)F)cc3)o2)cc1F` (stereo not shown) [Compound J429, (Z)-1-(2-Fluoro-4-(5-(4-(trifluoromethoxy)phenyl)-1,3,4-oxadiazol-2-yl)phenyl)-3-(3-(2-(1-methoxyethyl)-5-methylphenyl)-4-oxothiazolidin-2-ylidene)urea], the pest or weed control at 50 µg/cm2 in data set [1] (read-out: BAW rating) and in data set [2] (setting [5]) was 50 to 100% in each case.
Turning to `Cc1ccc(OCCC(F)(F)F)c(N2C(=O)CS/C2=N\C(=O)Nc2ccc(-c3ncn(-c4ccc(OC(F)(F)F)cn4)n3)cc2C(F)(F)F)c1` [Compound J273, (Z)-1-(3-(5-Methyl-2-(3,3,3-trifluoropropoxy)phenyl)-4-oxothiazolidin-2-ylidene)-3-(4-(1-(5-(trifluoromethoxy)pyridin-2-yl)-1H-1,2,4-triazol-3-yl)-2-(trifluoromethyl)phenyl)urea], the pest or weed control at 50 µg/cm2 in data set [1] (setting [3]) and in data set [2] (setting [4]) was 50 to 100% in each case.
Regarding `Cc1ccc(COCC(F)(F)F)c(N2C(=O)CS/C2=N\C(=O)Nc2ccc(-n3cnc(-c4ccc(OC(F)(F)F)cc4)n3)cc2)c1` [Compound J403, (Z)-1-(3-(5-Methyl-2-((2,2,2-trifluoroethoxy)methyl)phenyl)-4-oxothiazolidin-2-ylidene)-3-(4-(3-(4-(trifluoromethoxy)phenyl)-1H-1,2,4-triazol-1-yl)phenyl)urea], the pest or weed control at 50 µg/cm2 in data set [1] (read-out: BAW rating) and in data set [2] (setting [5]) was 50 to 100% throughout.
Regarding `CCOCc1ccc(C)cc1N1C(=O)CS/C1=N\C(=O)Nc1ccc(-c2ncn(-c3ccc(C(F)(F)C(F)(F)F)cc3)n2)cc1F` [Compound J795, (Z)-1-(3-(2-(Ethoxymethyl)-5-methylphenyl)-4-oxothiazolidin-2-ylidene)-3-(2-fluoro-4-(1-(4-(perfluoroethyl)phenyl)-1H-1,2,4-triazol-3-yl)phenyl)urea], the “BAW rating (% control or mortality class)” value in data set [1] (Table ABC, species BAW, 128-well diet tray assay, second instar larvae) is reported as “A (50-100)”. Besides, the mortality (commonly the share of the test organisms that died) at 50 µg/cm2 in data set [2] (Trichoplusia ni, Table ABC, species CL, 128-well diet tray assay, second instar larvae, read-out: CL rating (% control or mortality class)) fell in the range of 50 to 100%.
Take `Cc1ccc(OCCC(F)(F)F)c(N2C(=O)CS/C2=N\C(=O)Nc2ccc(-c3cn(-c4ccc(C(F)(F)F)cn4)cn3)cc2F)c1` [Compound J484, (Z)-1-(2-Fluoro-4-(1-(5-(trifluoromethyl)pyridin-2-yl)-1H-imidazol-4-yl)phenyl)-3-(3-(5-methyl-2-(3,3,3-trifluoropropoxy)phenyl)-4-oxothiazolidin-2-ylidene)urea]: the pest or weed control at 50 µg/cm2 in data set [1] (read-out: BAW rating) and in data set [2] (setting [5]) was 50 to 100% each time.
`Cc1ccc(OCCC(F)(F)F)c(N2C(=O)C(Cl)S/C2=N\C(=O)Nc2ccc(-c3ncn(-c4ccc(C(F)(F)F)cc4)n3)cc2)c1` (stereo not shown) [Compound J317, (Z)-1-(5-Chloro-3-(5-methyl-2-(3,3,3-trifluoropropoxy)phenyl)-4-oxothiazolidin-2-ylidene)-3-(4-(1-(4-(trifluoromethyl)phenyl)-1H-1,2,4-triazol-3-yl)phenyl)urea]: the pest or weed control at 50 µg/cm2 in data set [1] (setting [3]) and in data set [2] (setting [4]) was 50 to 100% each time.
With `Cc1ccc(-c2ccco2)c(N2C(=O)CS/C2=N\C(=O)Nc2ccc(-c3ncn(-c4ccc(OC(F)(F)F)cc4)n3)cc2C)c1` [Compound J488, (Z)-1-(3-(2-(Furan-2-yl)-5-methylphenyl)-4-oxothiazolidin-2-ylidene)-3-(2-methyl-4-(1-(4-(trifluoromethoxy)phenyl)-1H-1,2,4-triazol-3-yl)phenyl)urea], the pest or weed control at 50 µg/cm2 in data set [1] (read-out: BAW rating) and in data set [2] (setting [5]) was 50 to 100% in each case.
For `Cc1ccc(COCC(F)(F)F)c(N2C(=O)CS/C2=N\C(=O)Nc2ccc(-c3ncn(-c4ccc(SC(F)(F)F)cc4)n3)cc2)c1` [Compound J367, (Z)-1-(3-(5-Methyl-2-((2,2,2-trifluoroethoxy)methyl)phenyl)-4-oxothiazolidin-2-ylidene)-3-(4-(1-(4-((trifluoromethyl)thio)phenyl)-1H-1,2,4-triazol-3-yl)phenyl)urea], the pest or weed control at 50 µg/cm2 in data set [1] (read-out: BAW rating) and in data set [2] (setting [5]) was 50 to 100% throughout.
Turning to `Cc1ccc(Cc2cccc(C(F)(F)F)c2)c(N2C(=O)CS/C2=N\C(=O)Nc2ccc(-c3ncn(-c4ccc(OC(F)(F)F)cc4)n3)cc2C)c1` [Compound J440, (Z)-1-(3-(5-Methyl-2-(3-(trifluoromethyl)benzyl)phenyl)-4-oxothiazolidin-2-ylidene)-3-(2-methyl-4-(1-(4-(trifluoromethoxy)phenyl)-1H-1,2,4-triazol-3-yl)phenyl)urea], the results for the pest or weed control at 50 µg/cm2 in data set [1] (read-out: BAW rating) and in data set [2] (setting [5]) were 50 to 100% and 0 to 50%, respectively.
The corresponding values for `Cc1ccc(COCc2ccc(F)cc2C(F)(F)F)c(N2C(=O)CS/C2=N\C(=O)Nc2ccc(-c3ncn(-c4ccc(OC(F)(F)F)cc4)n3)cc2F)c1` [Compound J621, (Z)-1-(3-(2-(((4-Fluoro-2-(trifluoromethyl)benzyl)oxy)methyl)-5-methylphenyl)-4-oxothiazolidin-2-ylidene)-3-(2-fluoro-4-(1-(4-(trifluoromethoxy)phenyl)-1H-1,2,4-triazol-3-yl)phenyl)urea] are 50 to 100% and 50 to 100%.
For `Cc1ccc(COCC(F)(F)F)c(N2C(=O)CS/C2=N\C(=O)Nc2ccc(-c3nnc(-c4ccc(OC(F)(F)F)cc4)s3)cc2F)c1` [Compound J500, (Z)-1-(2-Fluoro-4-(5-(4-(trifluoromethoxy)phenyl)-1,3,4-thiadiazol-2-yl)phenyl)-3-(3-(5-methyl-2-((2,2,2-trifluoroethoxy)methyl)phenyl)-4-oxothiazolidin-2-ylidene)urea], in that order: 50 to 100% and 50 to 100%.
On to `Cc1ccc(COCc2cccc(F)c2)c(N2C(=O)CS/C2=N\C(=O)Nc2ccc(-c3ncn(-c4ccc(OC(F)(F)F)cc4)n3)cc2F)c1` [Compound J568, (Z)-1-(2-fluoro-4-(1-(4-(trifluoromethoxy)phenyl)-1H-1,2,4-triazol-3-yl)phenyl)-3-(3-(2-(((3-fluorobenzyl)oxy)methyl)-5-methylphenyl)-4-oxothiazolidin-2-ylidene)urea], for which the pest or weed control at 50 µg/cm2 in data set [1] (read-out: BAW rating) and in data set [2] (setting [5]) was 50 to 100% each time.
Consider `Cc1ccc(OCCC(F)(F)F)c(N2C(=O)CS/C2=N\C(=O)Nc2ccc(-c3ncn(-c4ccc(SC(F)(F)F)cc4)n3)cc2)c1` [Compound J387, (Z)-1-(3-(5-Methyl-2-(3,3,3-trifluoropropoxy)phenyl)-4-oxothiazolidin-2-ylidene)-3-(4-(1-(4-((trifluoromethyl)thio)phenyl)-1H-1,2,4-triazol-3-yl)phenyl)urea], for which the pest or weed control at 50 µg/cm2 in data set [1] (read-out: BAW rating) and in data set [2] (setting [5]) was 50 to 100% in each case.
For the compound `CCOCc1ccc(C)cc1N1C(=O)CS/C1=N\C(=O)Nc1ccc(-c2ncn(-c3ccc(S(F)(F)(F)(F)F)cc3)n2)cc1C(F)(F)F` [Compound J627, (Z)-1-(3-(2-(Ethoxymethyl)-5-methylphenyl)-4-oxothiazolidin-2-ylidene)-3-(4-(1-(4-(pentafluoro-λ^6-sulfaneyl)phenyl)-1H-1,2,4-triazol-3-yl)-2-(trifluoromethyl)phenyl)urea], the pest or weed control at 50 µg/cm2 in data set [1] (read-out: BAW rating) and in data set [2] (setting [5]) was 50 to 100% each time.
Consider `CC(C)c1ccc(N(C)C)cc1N1C(=O)CS/C1=N\C(=O)Nc1ccc(-c2cn(-c3ccc(C(F)(F)F)cn3)cn2)cc1` [Compound J520, (Z)-1-(3-(5-(Dimethylamino)-2-isopropylphenyl)-4-oxothiazolidin-2-ylidene)-3-(4-(1-(5-(trifluoromethyl)pyridin-2-yl)-1H-imidazol-4-yl)phenyl)urea], for which the pest or weed control at 50 µg/cm2 in data set [1] (read-out: BAW rating) and in data set [2] (setting [5]) was 50 to 100% in each case.
As for `CCCN(CCC)c1ccc(C(C)C)c(N2C(=O)CS/C2=N\C(=O)Nc2ccc(-c3ncn(-c4ccc(OC(F)(F)F)cc4)n3)cc2C)c1` [Compound J130, (Z)-1-(3-(5-(Dipropylamino)-2-isopropylphenyl)-4-oxothiazolidin-2-ylidene)-3-(2-methyl-4-(1-(4-(trifluoromethoxy)phenyl)-1H-1,2,4-triazol-3-yl)phenyl)urea], the pest or weed control at 50 µg/cm2 in data set [1] (setting [3]) and in data set [2] (setting [4]) was 50 to 100% each time.
Consider `Cc1ccc(COCC(F)(F)F)c(N2C(=O)CS/C2=N\C(=O)Nc2ccc(-c3ccn(-c4ccc(C(F)(F)F)cn4)n3)cc2C)c1` [Compound J310, (Z)-1-(3-(5-Methyl-2-((2,2,2-trifluoroethoxy)methyl)phenyl)-4-oxothiazolidin-2-ylidene)-3-(2-methyl-4-(1-(5-(trifluoromethyl)pyridin-2-yl)-1H-pyrazol-3-yl)phenyl)urea], for which the pest or weed control at 50 µg/cm2 in data set [1] (setting [3]) and in data set [2] (setting [4]) was 50 to 100% each time.
